One assay concerns HIV-1. Kind of assay: microbe, parasite or virus in culture. The note with it: read-out: HIV1 CEM: EC50 for inhibition of HIV-1 in CEM cells. As for the experimental part: (§1) Cells were infected with HIV-1 as previously described [Balzarini et al. AIDS (1991), 5, 21–28]. Briefly, 5×10^5 cells per milliliter were infected with HIV-1 or HIV-2 at 100 CCID50 (50% cell culture infective dose) per milliliter of cell suspension. Then 100 μL of the infected cell suspension was transferred to microtiter plate wells and mixed with 100 μL of the appropriate dilutions of the test compounds. After 4 days giant cell formation was recorded microscopically in the HIV-infected cell cultures [CEM], and after 5 days the number of viable cells was determined by trypan blue staining of the HIV-infected cell cultures [MT4].
(§2) The data columns are, in order: • HIV1 MT4: EC50 in μM for inhibition of HIV-1 in MT4 cells. • HIV2 MT4: EC50 in μM for inhibition of HIV-2 in MT4 cells. • CC50 MT4: CC50 in μM for toxicity to MT-4 cells. • HIV1 CEM: EC50 in μM for inhibition of HIV-1 in CEM cells. • HIV2 CEM: EC50 in μM for inhibition of HIV-2 in CEM cells. • HIV2 CEM-TK-: EC50 in μM for inhibition of HIV-2 in CEM/TK^− cells. • CC50 CEM: CC50 in μM for toxicity to CEM cells. • EC50 MSV: EC50 in μM for inhibition of MSV • MCC MSV: Minimum cytotoxic concentration in MSV assay

The test system of assay [1] is HIV-2. Kind of assay: Inhibition of HIV-2 in CEM/TK- cells. It is filed as cell-based. Conditions: Table 6; mean of two or more repeat experiments; read-out: HIV2 CEM-TK-: EC50 for inhibition of HIV-2 in CEM/TK^− cells. On the procedure:
as §1, §2

Assay [2] relates to HIV-2. Kind of assay: Inhibition of HIV-2 in CEM cells (giant cell formation). It is filed as cell-based. Conditions: Table 6; mean of two or more repeat experiments; read-out: HIV2 CEM: EC50 for inhibition of HIV-2 in CEM cells. As for the experimental part:
as §1, §2

[3] abbreviates: Table 6, mean of two or more repeat experiments.

Data on 38 compounds can be found in patent publication US7018989B2, “Chemical compounds” (University College Cardiff Consultants, LTD, priority 1995, dated 2006).

Where a name gives a salt, the structure may show the parent alone. Read-outs that look alike come from different tables or passages of the source.

Turning to `Cc1cn([C@H]2C=C[C@@H](CO)O2)c(=O)[nH]c1=O` [Compound 268, reference compound], the EC50 is 0.24 µM in the assay on HIV-1 (setting [3]), more than 100 µM in the assay with HIV-2 [1] and 1.2 µM in the assay on HIV-2 [2].

For the compound `COC(=O)C(NP(=O)(OCC1C=CC(n2cc(C)c(=O)[nH]c2=O)O1)OCC(Cl)(Cl)Cl)C(C)C` (stereo not drawn) [Compound 322], the EC50 in the assay on HIV-1 (setting [3]) came to 29 µM; in the assay with HIV-2 [1] it was 59 µM; in the assay on HIV-2 [2], 71 µM.

As for `COC(=O)C(CCSC)NP(=O)(OCC1C=CC(n2cc(C)c(=O)[nH]c2=O)O1)OCC(Cl)(Cl)Cl` (stereo not drawn) [Compound 345], the EC50 was 8 µM in the assay with HIV-1 (setting [3]), 10 µM in the assay on HIV-2 [1] and 11 µM in the assay on HIV-2 [2].

Take `CCCNP(=O)(OCC1C=CC(n2cc(C)c(=O)[nH]c2=O)O1)OCC(Cl)(Cl)Cl` (stereo not drawn) [Compound 401]: the EC50 in the assay on HIV-1 (setting [3]), in the assay with HIV-2 [1] and in the assay with HIV-2 [2] was more than 210 µM throughout.

Consider `CCCCNP(=O)(OCC1C=CC(n2cc(C)c(=O)[nH]c2=O)O1)OCC(Cl)(Cl)Cl` (stereo not drawn) [Compound 402], for which the EC50 was 118 µM in the assay on HIV-1 (setting [3]), 161 µM in the assay on HIV-2 [1] and more than 204 µM in the assay on HIV-2 [2].

On to `CCNP(=O)(OCC1C=CC(n2cc(C)c(=O)[nH]c2=O)O1)OCC(Cl)(Cl)Cl` (stereo not drawn) [Compound 403], for which the EC50 in the assay on HIV-1 (setting [3]) was more than 216 µM; in the assay on HIV-2 [1], more than 218 µM; in the assay with HIV-2 [2] it was more than 216 µM.

Turning to `CCCOP(=O)(OCC1C=CC(n2cc(C)c(=O)[nH]c2=O)O1)OCC(Cl)(Cl)Cl` (stereo not drawn) [Compound 404], the EC50 with HIV-1 (setting [3]), with HIV-2 [1] and with HIV-2 [2] was more than 209 µM each time.

For the compound `Cc1cn(C2C=CC(COP(=O)(O)OCC(Cl)(Cl)Cl)O2)c(=O)[nH]c1=O` (stereo not drawn) [Compound 407], the EC50 is 86 µM in the assay on HIV-2 [1] and 0.5 µM in the assay on HIV-2 [2].

In the case of `O=c1ccn([C@H]2C=C[C@@H](CO)O2)c(=O)[nH]1` [Compound 446, reference compound], the EC50 in the assay with HIV-1 (setting [3]), with HIV-2 [1] and in the assay on HIV-2 [2] was more than 95 µM in each case.

Turning to `Cc1cn(C2C=CC(CNP(=O)(OC(C)C)OC(C)C)O2)c(=O)[nH]c1=O` (stereo not drawn) [Compound 479], the EC50 with HIV-1 (setting [3]), with HIV-2 [1] and with HIV-2 [2] was more than 258 µM each time.

With `CCCCNP(=O)(OCC1C=CC(n2cc(C)c(=O)[nH]c2=O)O1)OCC(F)(F)F` (stereo not drawn) [Compound 504], the values for the EC50 in the assay on HIV-1 (setting [3]), with HIV-2 [1] and with HIV-2 [2] were 73 µM, not below 226 µM and 116 µM, respectively.

For `COC(=O)C(C)NP(=O)(OCC1C=CC(n2ccc(=O)[nH]c2=O)O1)Oc1cccc(C(F)(F)F)c1` (stereo not drawn) [Compound 547], the EC50 in the assay on HIV-1 (setting [3]) is more than 3520 µM; in the assay with HIV-2 [1] it was more than 35 µM; in the assay on HIV-2 [2] it was more than 7 µM.

Consider `CCOP(=O)(OCC)OCC1C=CC(n2ccc(=O)[nH]c2=O)O1` (stereo not drawn) [Compound 551], for which the EC50 in the assay on HIV-1 (setting [3]), in the assay on HIV-2 [1] and in the assay with HIV-2 [2] was more than 58 µM in each case.

For `COC(=O)C(C)NP(=O)(OCC1C=CC(n2ccc(=O)[nH]c2=O)O1)Oc1ccccc1` (stereo not drawn) [Compound 558], the EC50 in the assay with HIV-1 (setting [3]), in the assay with HIV-2 [1] and with HIV-2 [2] was more than 44 µM throughout.

For `O=c1ccn(C2C=CC(COP(=O)(OCC(Cl)(Cl)Cl)OCC(Cl)(Cl)Cl)O2)c(=O)[nH]1` (stereo not drawn) [Compound 562], the EC50 in the assay with HIV-1 (setting [3]), with HIV-2 [1] and in the assay with HIV-2 [2] was more than 36 µM in each case.

For the compound `CCCNP(=O)(OCC)OCC1C=CC(n2cc(C)c(=O)[nH]c2=O)O1` (stereo not drawn) [Compound 563], the EC50 with HIV-1 (setting [3]), in the assay on HIV-2 [1] and in the assay on HIV-2 [2] was more than 268 µM in each case.

As to `CC[C@H](C)[C@H](NP(=O)(OCC1C=CC(n2cc(C)c(=O)[nH]c2=O)O1)Oc1ccccc1)C(=O)OC` (stereo partly drawn) [Compound 1186, 2′,3′-dideoxy-2′,3′-didehydrothymidino 5′-(phenylmethoxyisoleucinyl phosphate)], the EC50 in the assay with HIV-1 (setting [3]) worked out at 5 µM.

With `Cc1cn([C@H]2C=C[C@@H](COP(=O)(O)NC(Cc3ccccc3)C(=O)O)O2)c(=O)[nH]c1=O` (stereo partly drawn) [Compound 1187, 2′,3′-dideoxy-2′,3′-didehydrothymidine 5′-(phenylalaninyl phosphate)], the EC50 with HIV-1 (setting [3]) was 3.5 µM.

Regarding `Cc1cn(C2C=CC(COP(=O)(NC(C)C(=O)OCC3CCCCC3)Oc3ccccc3)O2)c(=O)[nH]c1=O` (stereo not drawn) [Compound 1189], the EC50 with HIV-1 (setting [3]) worked out at 0.04 µM.

Turning to `Cc1cn(C2C=CC(COP(=O)(O)NC(C(=O)O)C(C)C)O2)c(=O)[nH]c1=O` (stereo not drawn) [Compound 1190, 2′,3′-dideoxy-2′,3′-didehydrothymidine 5′-(valinyl phosphate)], the EC50 in the assay on HIV-1 (setting [3]) is 0.7 µM.

On to `Cc1cn(C2C=CC(COP(=O)(O)NC(CC(C)C)C(=O)O)O2)c(=O)[nH]c1=O` (stereo not drawn) [Compound 1192, 2′,3′-dideoxy-2′,3′-didehydrothymidine 5′-(leucinyl phosphate)], for which, in the assay on HIV-1 (setting [3]), the EC50 was 1.4 µM.

Consider `Cc1cn(C2C=CC(COP(=O)(Oc3ccccc3)N3CCCC3C(=O)O)O2)c(=O)[nH]c1=O` (stereo not drawn) [Compound 1194, 2′,3′-dideoxy-2′,3′-didehydrothymidine 5′-(phenylprolinyl phosphate)], for which, in the assay on HIV-1 (setting [3]), the EC50 is 6 µM.

On to `COC(=O)CCC(NP(=O)(OCC1C=CC(n2cc(C)c(=O)[nH]c2=O)O1)Oc1ccccc1)C(=O)OC` (stereo not drawn) [Compound 1196, 2′,3′-Dideoxy-2′,3′-didehydrothymidine-5′-(phenyldimethoxyglutaminyl phosphoramidate], for which, in the assay on HIV-1 (setting [3]), the EC50 is 1.2 µM.

With `COC(=O)CCNP(=O)(OCC1C=CC(n2cc(C)c(=O)[nH]c2=O)O1)Oc1ccccc1` (stereo not drawn) [Compound 1197, 2′,3′-Dideoxy-2′,3′-didhydrothymidine-5′-(phenylmethoxy-B-alaninyl) phosphate], the EC50 in the assay on HIV-1 (setting [3]) was more than 250 µM.

Take `CCC(NP(=O)(OCC1C=CC(n2cc(C)c(=O)[nH]c2=O)O1)Oc1ccccc1)C(=O)OC` (stereo not drawn) [Compound 1198, 2′,3′-Dideoxy-2′,3′-didehydrothymidine-5′-(phenylmethoxy-α-aminobutylryl) phosphate]: in the assay with HIV-1 (setting [3]), the EC50 was more than 250 µM.

For the compound `COC(=O)CCCCCNP(=O)(OCC1C=CC(n2cc(C)c(=O)[nH]c2=O)O1)Oc1ccccc1` (stereo not drawn) [Compound 1199, 2′,3′-Dideoxy-2′,3′-didehydrothymidine-5′-(phenylmethoxy-6-aminocaproyl) phosphate], the EC50 in the assay with HIV-1 (setting [3]) is more than 250 µM.

With `COC(=O)C(C)(C)NP(=O)(OCC1C=CC(n2cc(C)c(=O)[nH]c2=O)O1)Oc1ccccc1` (stereo not drawn) [Compound 1200, 2′,3′-Dideoxy-2′,3′-didehydrothymidine-5′-(phenylmethoxy-2-aminoisobutylryl) phosphate], in the assay on HIV-1 (setting [3]), the EC50 was 0.12 µM.

Turning to `COC(=O)C[C@H](NP(=O)(OC[C@@H]1C=C[C@H](n2cc(C)c(=O)[nH]c2=O)O1)Oc1ccccc1)C(=O)OC` (stereo partly drawn) [Compound 1214, 2′,3′-Dideoxy-2′,3′-didehydrothymidine-5′-(phenyldimethoxyasparaginyl) phosphoramidate], the EC50 in the assay on HIV-1 (setting [3]) stood at 0.6 µM.

As for `COC(=O)C(Cc1c[nH]c2ccccc12)NP(=O)(OC[C@@H]1C=C[C@H](n2cc(C)c(=O)[nH]c2=O)O1)Oc1ccccc1` (stereo partly drawn) [Compound 1215, 2′,3′-Dideoxy-2′,3′-didehydrothymidine-5′-(phenylmethoxytryptophanyl) phosphoramidate], the EC50 in the assay on HIV-1 (setting [3]) amounted to 4 µM.

For `Cc1cn(C2C=CC(COP(=O)(O)NCCC(=O)O)O2)c(=O)[nH]c1=O` (stereo not drawn) [Compound 1216, 2′,3′-Dideoxy-2′,3′-didehydrothymidine-5′-(β-alaninyl) phosphate ammonium salt], the EC50 in the assay on HIV-1 (setting [3]) came out at 0.7 µM.

For the compound `CCCCCC(=O)OP(=O)(O)OC[C@@H]1C=C[C@H](n2cc(C)c(=O)[nH]c2=O)O1` [Compound 1217, 2′,3′-Dideoxy-2′,3′-didehydrothymidine-5′-(caproyl) phosphate ammonium salt], the EC50 in the assay on HIV-1 (setting [3]) turned out to be 1.4 µM.

Take `CCCCCOC(=O)C(C)NP(=O)(OCC1C=CC(n2cc(C)c(=O)[nH]c2=O)O1)Oc1ccccc1` (stereo not drawn) [Compound 1218]: the EC50 with HIV-1 (setting [3]) was less than 0.08 µM.

Consider `Cc1cn([C@H]2C=C[C@@H](COP(=O)(N[C@@H](C)C(=O)OCC(C)(C)C)Oc3ccccc3)O2)c(=O)[nH]c1=O` (stereo partly drawn) [Compound 1219], for which, in the assay on HIV-1 (setting [3]), the EC50 was less than 0.08 µM.

As for `Cc1cn(C2C=CC(COP(=O)(NC(C)C(=O)OCCc3ccccc3)Oc3ccccc3)O2)c(=O)[nH]c1=O` (stereo not drawn) [Compound 1220], in the assay on HIV-1 (setting [3]), the EC50 was 0.7 µM.

In the case of `Cc1cn([C@H]2C=C[C@@H](COP(=O)(O)OC(=O)CCCN)O2)c(=O)[nH]c1=O` [Compound 1224, 2′,3′-Dideoxy-2′,3′-didehydrothymidine-5′(γ-aminobutylryl) phosphate ammonium salt], the EC50 with HIV-1 (setting [3]) was found to be 1 µM.

As to `Cc1cn(C2C=CC(COP(=O)(NC(C)C(=O)Oc3cccc4ccccc34)Oc3ccccc3)O2)c(=O)[nH]c1=O` (stereo not drawn) [Compound 1226], the EC50 with HIV-1 (setting [3]) is less than 0.08 µM.

Take `Cc1cn(C2C=CC(COP(=O)(NC(C)C(=O)Oc3ccc4ccccc4c3)Oc3ccccc3)O2)c(=O)[nH]c1=O` (stereo not drawn) [Compound 1227]: the EC50 with HIV-1 (setting [3]) was less than 0.08 µM.

Regarding `COC(=O)C(C)NP(=O)(OCC1CCC(n2cc(C)c(=O)[nH]c2=O)O1)Oc1ccccc1` (stereo not drawn) [Cpd 1225], in the assay with HIV-1 (CEM cells, HIV-1), the EC50 turned out to be 1.2 µM.
